# Results: US20220204497A1, “NOVEL COMPOUND HAVING ANTICANCER ACTIVITY, AND METHOD FOR PRODUCING SAME” (MEDICINAL BIOCONVERGENCE RESEARCH CENTER, priority 2019, published 2022)
# What was measured:
# A549 cells = test: Cell viability by MTT method in A549 cells; type: cell-based; parameters: concentration or dose not given beside the values; conditions: 72 hours treatment
# AIMP2-DX2 = target: T1, AIMP2-DX2 (Homo sapiens, UniProt Q13155); test: DX2-nanoluciferase assay (DX2 expression change) in transfected A549 cells; conditions: inhibitory effect on AIMP2-DX2 expression; for inhibition at 40 µM: A549, 4 h, read-out: DX-Nanoluciferase activity (40 μM), 40 μM, 4 hours treatment, A549 cells transfected with nanoluciferase-DX2; for DX-Nanoluciferase activity (40 μM): 4 hours treatment, A549 cells transfected with nanoluciferase-DX2
# T1 sequence (Q13155 1-251 isoform Q13155-2): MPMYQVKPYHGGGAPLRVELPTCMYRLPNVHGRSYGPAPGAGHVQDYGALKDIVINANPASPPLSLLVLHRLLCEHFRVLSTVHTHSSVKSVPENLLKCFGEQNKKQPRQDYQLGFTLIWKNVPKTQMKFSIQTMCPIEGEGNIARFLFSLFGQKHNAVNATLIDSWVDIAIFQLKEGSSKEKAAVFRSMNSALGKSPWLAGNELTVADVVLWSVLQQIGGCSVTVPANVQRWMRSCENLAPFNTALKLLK
# Protocol: After cloning DX2 into a plasmid expressing nanoluciferase, the plasmid was transfected into A549 cells. Transfected cells were seeded 1×10^4 per well in a 96-well plate and stabilized for 12 hours. […] Cell viability was measured by the MTT method after 72 hours of treatment with each concentration of the compound in A549 cells.
Compound,inhibition at 40 µM (AIMP2-DX2) [%],Cell Viability (% inhibition) (A549) (A549 cells) [%],DX-Nanoluciferase activity (40 μM) (AIMP2-DX2)
"Cc1ccc(S(=O)(=O)N[C@@H](Cc2ccccc2)C(=O)N2CCOCC2)cc1 [Compound 38, (S)-4-methyl-N-(1-morpholino-1-oxo-3-phenylpropan-2-yl)benzenesulfonamide]",32.3 ± 2.6,15.14 ± 1.24,–
"Cc1ccc(S(=O)(=O)N[C@@H](CO)C(=O)N2CCOCC2)cc1 [Compound 39, (S)—N-(3-hydroxy-1-morpholino-1-oxopropan-2-yl)-4-methylbenzenesulfonamide]",7.7 ± 11.2,−2.43 ± 0.94,–
"Cc1ccc(S(=O)(=O)N[C@H](C(=O)N2CCOCC2)C(C)C)cc1 [Compound 40, (S)-4-methyl-N-(3-methyl-1-morpholino-1-oxobutan-2-yl)benzenesulfonamide]",31.3 ± 10.3,−5.41 ± 6.12,–
"Cc1ccc(S(=O)(=O)N[C@@H](CS)C(=O)N2CCOCC2)cc1 [Compound 41, (R)—N-(3-mercapto-1-morpholino-1-oxopropan-2-yl)-4-methylbenzenesulfonamide]",52.5 ± 5.6,12.16 ± 6.14,–
"Cc1ccc(S(=O)(=O)N[C@H](C(=O)Nc2ccc(N3CCOCC3)cc2)[C@H](C)O)cc1 [Compound 42, (2S,3S)-3-hydroxy-2-(4-methylphenylsulfonamido)-N-(4-morpholinophenyl)butanamide]",-12.8 ± 10.6,13.24 ± 6.93,–
"CC[C@H](C)[C@H](NS(=O)(=O)c1ccc(C)cc1)C(=O)Nc1ccc(N2CCOCC2)cc1 [Compound 43, (2S,3S)-3-methyl-2-(4-methylphenylsulfonamido)-N-(4-morpholinophenyl)pentanamide]",42.9 ± 3.9,17.08 ± 7.96,–
"Cc1ccc(S(=O)(=O)N[C@@H](Cc2cc3ccccc3[nH]2)C(=O)Nc2ccc(N3CCOCC3)cc2)cc1 [Compound 46, (S)-3-(1H-indol-2-yl)-2-(4-methylphenylsulfonamido)-N-(4-morpholinophenyl) propanamide]",–,61.35 ± 10.27,67.1 ± 10.8
"Cc1ccc(S(=O)(=O)N[C@@H](Cc2cn(C)c3ccccc23)C(=O)Nc2ccc(N3CCOCC3)cc2)cc1 [Compound 47, (S)-3-(1-methyl-1H-indol-3-yl)-2-(4-methylphenylsulfonamido)-N-(4-morpholinophenyl) propanamide]",–,64.95 ± 2.84,38.20 ± 7.73
"Cc1ccc(S(=O)(=O)N[C@@H](CC(C)C)C(=O)OCc2ccccc2)cc1 [Compound 49, (S)-benzyl 4-methyl-2-(4-methylphenylsulfonamido)pentanoate]",43.1 ± 6.46,96.77 ± 0.70,–
"Cc1ccc(C(=O)N[C@@H](CC(C)C)C(=O)OCc2ccccc2)cc1 [Compound 50, (S)-benzyl 4-methyl-2-(4-methylbenzamido)pentanoate]",65.9 ± 4,75.41 ± 3.28,–
"CC(C)C[C@H](NC(=O)c1ccc(C(C)(C)C)cc1)C(=O)OCc1ccccc1 [Compound 51, (S)-benzyl 2-(4-tert-butylbenzamido)-4-methylpentanoate]",63.5 ± 4.5,11.62 ± 4.29,–
"CC(C)C[C@H](NC(=O)c1ccc2c(c1)OCO2)C(=O)OCc1ccccc1 [Compound 52, (S)-benzyl 2-(benzo[d][1,3]dioxole-5-carboxamido)-4-methylpentanoate]",-5.6 ± 5.2,64.59 ± 5.15,–
"CC(C)C[C@H](NC(=O)c1ccc(NC(=O)OC(C)(C)C)cc1)C(=O)OCc1ccccc1 [Compound 53, (S)-benzyl 2-(4-(tert-butoxycarbonylamino)benzamido)-4-methylpentanoate]",43.7 ± 9.9,49.19 ± 13.33,–
"CC(C)C[C@H](NC(=O)CCS(=O)(=O)c1ccccc1)C(=O)OCc1ccccc1 [Compound 54, (S)-benzyl 4-methyl-2-(3-(phenylsulfonyl)propanamido)pentanoate]",–,84.05 ± 2.61,33.7 ± 4.3
"CC(C)C[C@H](NC(=O)Nc1ccccc1)C(=O)N1CCOCC1 [Compound 56, (S)-1-(4-Methyl-1-morpholino-1-oxopentan-2-yl)-3-phenylurea]",33 ± 10.7,32.07,–
"CC(C)C[C@H](NC(=O)c1ccc(C(C)(C)C)cc1)C(=O)N1CCOCC1 [Compound 57, (S)-4-tert-Butyl-N-(4-methyl-1-morpholino-1-oxopentan-2-yl)benzamide]",63.8 ± 11,−4.86 ± 4.95,–
"CC(C)C[C@H](NC(=O)CCS(=O)(=O)c1ccccc1)C(=O)N1CCOCC1 [Compound 58, (S)—N-(4-Methyl-1-morpholino-1-oxopentan-2-yl)-3-(phenylsulfonyl)propanamide]",63.1 ± 4.5,−0.81 ± 4.95,–
"CC(C)C[C@H](NC(=O)c1ccc(C(C)(C)C)cc1)C(=O)Nc1ccc(N2CCOCC2)cc1 [Compound 59, (S)-4-tert-Butyl-N-(4-methyl-1-(4-morpholinophenylamino)-1-oxopentan-2-yl)benzamide]",45.7 ± 8.28,90.03 ± 0.97,–
"CC(C)C[C@H](NC(=O)c1ccc2c(c1)OCO2)C(=O)Nc1ccc(N2CCOCC2)cc1 [Compound 60, (S)—N-(4-Methyl-1-(4-morpholinophenylamino)-1-oxopentan-2-yl)benzo[d][1,3]dioxole-5-carboxamide]",35.7 ± 10.2,9.46 ± 9.67,–
"O=C(Nc1ccc(N2CCOCC2)cc1)[C@H](Cc1c[nH]c2ccccc12)NS(=O)(=O)c1ccc(C(F)(F)F)cc1 [Compound 68, (S)-3-(1H-indol-3-yl)-N-(4-morpholinophenyl)-2-(4-(trifluoromethyl)phenylsulfon-amido)propanamide]",–,76.90 ± 0.51,48.06 ± 6.78
"Cc1ccc(S(=O)(=O)N[C@@H](Cc2c[nH]c3ccccc23)C(=O)Nc2ncc(N3CCOCC3)s2)cc1 [Compound 71, (S)-3-(1H-indol-3-yl)-2-(4-methylphenylsulfonamido)-N-(5-morpholinothiazol-2-yl)propan amide]",–,72.71 ± 0.97,54.64 ± 13.30

# Continued, in another order:
inhibition at 40 µM (AIMP2-DX2) [%],Compound,Cell Viability (% inhibition) (A549) (A549 cells) [%],DX-Nanoluciferase activity (40 μM) (AIMP2-DX2)
60.3 ± 4.8,"CC(C)C[C@H](NC(=O)CCS(=O)(=O)c1ccccc1)C(=O)Nc1ccc(N2CCOCC2)cc1 [Compound 61, (S)-4-Methyl-N-(4-morpholinophenyl)-2-(3-(phenylsulfonyl)propanamido)pentanamide]",−1.25 ± 3.63,–
42.4 ± 3.97,"Cc1cc(C)cc(S(=O)(=O)N[C@@H](Cc2c[nH]c3ccccc23)C(=O)Nc2ccc(N3CCOCC3)cc2)c1 [Compound 66, (S)-2-(3,5-Dimethylphenylsulfonamido)-3-(1H-indol-3-yl)-N-(4 morpholinophenyl)propanamide]",77.25 ± 0.82,–
44.5 ± 14.2,"O=C(Nc1ccc(N2CCOCC2)cc1)[C@H](Cc1c[nH]c2ccccc12)NS(=O)(=O)c1ccc(F)cc1 [Compound 67, (S)-2-(4-Fluorophenylsulfonamido)-3-(1H-indol-3-yl)-N-(4-morpholinophenyl)propanamide]",69.20 ± 2.10,–
48.4 ± 11.6,"Cc1ccc(S(=O)(=O)N[C@@H](Cc2c[nH]c3ccc(O)cc23)C(=O)Nc2ccc(N3CCOCC3)cc2)cc1 [Compound 69, (S)-3-(5-Hydroxy-1H-indol-3-yl)-2-(4-methylphenylsulfonamido)-N-(4-morpholinophenyl)propanamide]",20.62 ± 5.14,–
59.7 ± 3.49,"Cc1ccc(S(=O)(=O)N[C@@H](Cc2c[nH]c3ccccc23)C(=O)N2CCOCC2)cc1 [Compound 70, (S)—N-(3-(1H-indol-3-yl)-1-morpholino-1-oxopropan-2-yl)-4-methylbenzenesulfonamide]",23.61 ± 2.18,–
21.5 ± 7.62,"Cc1ccc(S(=O)(=O)N[C@@H](Cc2c[nH]c3ccccc23)C(=O)Nc2ccc(N3CCOCC3)cc2)c(C)c1 [Compound 72, (S)-2-(2,4-Dimethylphenylsulfonamido)-3-(1H-indol-3-yl)-N-(4-morpholinophenyl)propanamide]",73.73 ± 0.78,–
44.2 ± 3.91,"CCOC(=O)C(Cc1c[nH]c2ccc(C(=O)O)cc12)NS(=O)(=O)c1ccc(C)cc1 (stereo not drawn) [Compound 73, 3-(3-Ethoxy-2-(4-methylphenylsulfonamido)-3-oxopropyl)-1H-indole-5-carboxylic acid]",4.32 ± 2.95,–
56.2 ± 14.5,"Cc1ccc(S(=O)(=O)N[C@@H](Cc2cn(S(=O)(=O)c3ccc(C)cc3)cn2)C(=O)Nc2ccc(N3CCOCC3)cc2)cc1 [Compound 74, (S)-2-(4-Methylphenylsulfonamido)-N-(4-morpholinophenyl)-3-(1-tosyl-1H-Imidazol-4-yl)propanamide]",45.34 ± 4.64,–
57.8 ± 8,"Cc1ccc(S(=O)(=O)N[C@@H](Cc2c[nH]c3ccccc23)C(=O)Nc2ccc(N3C[C@@H](C)O[C@@H](C)C3)nc2)cc1 [Compound 75, (S)—N-(6-((2S,6R)-2,6-dimethylmorpholino)pyridin-3-yl)-3-(1H-indol-3-yl)-2-(4-methylphenylsulfonamido)propanamide]",79.58 ± 3.72,–
